In US20220282217A1, “COMPOSITIONS AND METHODS FOR PREPARING T CELL COMPOSITIONS AND USES THEREOF” (priority 2019, published 2022):
Like-named read-outs stand apart in the source and are kept apart here. Where a SMILES comes first, the peptide text is derived from it.

Columns and labels:
HLA-A02.01 [1] = target: HLA-A02.01 (Homo sapiens, UniProt P04439, D140Y/D185E/D98H/E176V/E277Q/G131W/G231S/I119V/I121R/I166T/I218V/L300P/L318F/N151K/N90K/P208A/P217A/Q86G/Q94H/R138H/R169H/T345S); assay: Class I MHC peptide binding affinity (displacement of radiolabeled reference peptide); conditions: for IC50: allele A02.01, read-out: Observed Affinity (IC50, (nM)); for Kd: EGFR T790M peptides, HLA allele A02.01, read-out: Affinity
Procedure, shortened: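 Radiolabeled reference peptide/MHCI complexes; test peptide titration, 2 d incubation; bound label remaining read by size-exclusion gel filtration.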

HLA-A24.02 = assay: as above; set-up: species or system human; conditions: allele A24.02; read-out: Observed Affinity (IC50; (nM))
HLA-A02.01 [2] = target: T1, HLA-A02.01 (Homo sapiens, UniProt P04439, D140Y/D185E/D98H/E176V/E277Q/G131W/G231S/I119V/I121R/I166T/I218V/N151K/N90K/P208A/P217A/Q86G/Q94H/R138H/R169H); assay: Class I MHC peptide binding stability (pMHC-I dissociation, 125I-labeled light chain); conditions: for Stability (T1/2 (h)): allele A02.01; for Stability (half-life (hr.)): EGFR T790M peptides, HLA allele A02.01
T1 construct: made in house; host or cells: E. coli

HLA-B07.02 = HLA-B07.02 (Homo sapiens, UniProt P01889); assay: Class I MHC peptide binding affinity (displacement of radiolabeled reference peptide)
[3] = Allele B07.02, read-out: Observed Affinity (IC50, (nM))

Row | SMILES | IC50 (HLA-A02.01 [1]) | IC50 (HLA-A24.02) | Stability (T1/2 (h)) (HLA-A02.01 [2]) | further results
1 | CC[C@H](C)[C@H](NC(=O)[C@@H]1CCCN1C(=O)[C@H](CCCNC(=N)N)NC(=O)[C@H](Cc1c[nH]c2ccccc12)NC(=O)[C@H](CC(N)=O)NC(=O)[C@H](CCSC)NC(=O)CNC(=O)CNC(=O)[C@H](CCSC)NC(=O)[C@@H](N)CS)C(=O)O | 346 nM | 4450 nM | 0.4 h | –
2 | CSCC[C@H](NC(=O)[C@H](CC(C)C)NC(=O)[C@H](CO)NC(=O)[C@H](CC(C)C)NC(=O)[C@@H]1CCCN1C(=O)[C@H](CCC(N)=O)NC(=O)[C@H](CCSC)NC(=O)[C@H](CCC(N)=O)NC(=O)[C@@H](N)Cc1ccccc1)C(=O)O | 553 nM | 14600 nM | 0.3 h | –
3 | CC[C@H](C)[C@H](N)C(=O)N[C@@H](CCSC)C(=O)N[C@@H](CCC(N)=O)C(=O)N[C@@H](CC(C)C)C(=O)N[C@@H](CCSC)C(=O)N1CCC[C@H]1C(=O)N[C@@H](Cc1ccccc1)C(=O)NCC(=O)N[C@@H](CS)C(=O)N[C@@H](CC(C)C)C(=O)O | 837 nM | 18100 nM | 0.5 h | Kd (HLA-A02.01 [1]): 0.653 µM; Stability (half-life (hr.)) (HLA-A02.01 [2]): 30.94 min
4 | CC[C@H](C)[C@H](NC(=O)[C@H](CO)NC(=O)[C@H](Cc1c[nH]c2ccccc12)NC(=O)[C@H](Cc1c[nH]cn1)NC(=O)[C@H](C)NC(=O)[C@@H]1CCCN1C(=O)[C@H](CCSC)NC(=O)[C@H](CC(C)C)NC(=O)[C@H](CO)NC(=O)[C@@H](N)CC(C)C)C(=O)O | 164 nM | 12400 nM | 0.4 h | –
5 | CC[C@H](C)[C@H](NC(=O)[C@H](CC(N)=O)NC(=O)[C@@H](NC(=O)[C@H](CC(=O)O)NC(=O)[C@H](CCCCN)NC(=O)[C@@H]1CCCN1C(=O)[C@@H](N)CCSC)C(C)C)C(=O)N[C@@H](CCC(N)=O)C(=O)N[C@H](C(=O)O)C(C)C | – | – | – | IC50 (HLA-B07.02; [3]): 12.5 nM
6 | CSCC[C@H](NC(=O)[C@H](CC(C)C)NC(=O)[C@H](CCC(N)=O)NC(=O)[C@@H](N)CCSC)C(=O)N1CCC[C@H]1C(=O)N[C@@H](Cc1ccccc1)C(=O)NCC(=O)N[C@@H](CS)C(=O)N[C@@H](CC(C)C)C(=O)N[C@@H](CC(C)C)C(=O)O | 20 nM | 23600 nM | 0.4 h | Kd (HLA-A02.01 [1]): 0.0163 µM; Stability (half-life (hr.)) (HLA-A02.01 [2]): 22.87 min
7 | CC[C@H](C)[C@H](NC(=O)[C@@H](NC(=O)[C@H](CC(C)C)NC(=O)[C@@H](NC(=O)[C@@H]1CCCN1C(=O)[C@H](CCCNC(=N)N)NC(=O)[C@H](CCCNC(=N)N)NC(=O)[C@H](CC(N)=O)NC(=O)[C@H](CCSC)NC(=O)[C@@H](N)CO)[C@@H](C)CC)[C@@H](C)O)C(=O)O | 1200 nM | 16300 nM | 0.3 h | –
8 | CC[C@H](C)[C@H](NC(=O)[C@@H]1CCCN1C(=O)[C@H](Cc1ccccc1)NC(=O)[C@H](Cc1ccccc1)NC(=O)[C@H](CCCNC(=N)N)NC(=O)[C@H](C)NC(=O)[C@H](CC(C)C)NC(=O)[C@H](CCC(N)=O)NC(=O)[C@@H](N)[C@@H](C)O)C(=O)O | 19 nM | 52 nM | – | –
9 | CC[C@H](C)[C@H](NC(=O)[C@H](CC(C)C)NC(=O)[C@H](CCC(N)=O)NC(=O)[C@@H](N)C(C)C)C(=O)N[C@@H](CCSC)C(=O)N[C@@H](CCC(N)=O)C(=O)N[C@@H](CC(C)C)C(=O)N[C@@H](CCSC)C(=O)N1CCC[C@H]1C(=O)N[C@@H](Cc1ccccc1)C(=O)O | 5490 nM | 4560 nM | – | Kd (HLA-A02.01 [1]): 4.94 µM
10 | CC(C)[C@H](NC(=O)[C@H](C)NC(=O)[C@@H]1CCCN1C(=O)[C@@H](NC(=O)[C@H](CCCNC(=N)N)NC(=O)[C@H](C)NC(=O)[C@@H]1CCCN1C(=O)[C@@H]1CCCN1C(=O)CN)C(C)C)C(=O)O (H-GPPARVPAV-OH; N-terminus and C-terminus assumed) | – | – | – | IC50 (HLA-B07.02): 221 nM
11 | C[C@H](NC(=O)[C@H](C)NC(=O)[C@H](CCCNC(=N)N)NC(=O)[C@@H]1CCCN1C(=O)[C@@H]1CCCN1C(=O)[C@H](CCCNC(=N)N)NC(=O)[C@@H]1CCCN1C(=O)[C@@H]1CCCN1C(=O)CN)C(=O)N[C@@H](CS)C(=O)O (H-GPPRPPRAAC-OH; N-terminus and C-terminus assumed) | – | – | – | IC50 (HLA-B07.02; [3]): 48.6 nM
12 | CC(C)C[C@H](NC(=O)[C@@H](NC(=O)[C@H](CO)NC(=O)[C@@H]1CCCN1C(=O)[C@H](CC(C)C)NC(=O)[C@H](Cc1ccccc1)NC(=O)[C@@H](NC(=O)[C@H](Cc1ccc(O)cc1)NC(=O)[C@@H](NC(=O)CN)C(C)C)[C@@H](C)O)[C@@H](C)O)C(=O)O (H-GVYTFLPSTL-OH; N-terminus and C-terminus assumed) | 1200 nM | 7700 nM | 0.4 h | –
13 | CC(C)C[C@H](NC(=O)[C@H](CCC(N)=O)NC(=O)[C@H](CC(C)C)NC(=O)[C@H](Cc1c[nH]cn1)NC(=O)[C@H](CC(N)=O)NC(=O)[C@H](CCC(N)=O)NC(=O)[C@H](CCCNC(=N)N)NC(=O)[C@H](CO)NC(=O)[C@@H](N)CCCCN)C(=O)O (H-KSRQNHLQL-OH; N-terminus and C-terminus assumed) | – | – | – | IC50 (HLA-B07.02; [3]): 78 nM
14 | CC[C@H](C)[C@H](NC(=O)[C@H](Cc1ccc(O)cc1)NC(=O)[C@H](CC(C)C)NC(=O)[C@@H](N)CC(C)C)C(=O)N[C@H](C(=O)N[C@@H](C)C(=O)N[C@@H](Cc1ccccc1)C(=O)N[C@@H](Cc1ccccc1)C(=O)N[C@@H](CC(C)C)C(=O)N[C@@H](CC(C)C)C(=O)O)[C@@H](C)O (H-LLYITAFFLL-OH; N-terminus and C-terminus assumed) | 323 nM | 60.1 nM | – | –
15 | CC[C@H](C)[C@H](NC(=O)[C@@H](NC(=O)[C@@H](NC(=O)[C@H](CC(C)C)NC(=O)[C@@H](NC(=O)[C@@H]1CCCN1C(=O)[C@H](CCCNC(=N)N)NC(=O)[C@H](Cc1c[nH]c2ccccc12)NC(=O)[C@H](CC(N)=O)NC(=O)[C@@H](N)CCSC)[C@@H](C)CC)[C@@H](C)O)[C@@H](C)CC)C(=O)O (H-MNWRPILTII-OH; N-terminus and C-terminus assumed) | 1030 nM | 44900 nM | 0.4 h | –
16 | C[C@H](NC(=O)[C@H](C)NC(=O)[C@H](CCCNC(=N)N)NC(=O)[C@@H]1CCCN1C(=O)[C@@H]1CCCN1C(=O)[C@H](CCCNC(=N)N)NC(=O)[C@@H]1CCCN1C(=O)[C@@H]1CCCN1)C(=O)N[C@@H](CS)C(=O)O (H-PPRPPRAAC-OH; N-terminus and C-terminus assumed) | – | – | – | IC50 (HLA-B07.02; [3]): 32.8 nM
17 | CSCC[C@H](NC(=O)[C@@H](N)CCCNC(=N)N)C(=O)N1CCC[C@H]1C(=O)N1CCC[C@H]1C(=O)N[C@@H](CS)C(=O)N[C@@H](CC(C)C)C(=O)N[C@@H](C)C(=O)N[C@@H](CC(N)=O)C(=O)N[C@@H](Cc1ccccc1)C(=O)O (H-RMPPCLANF-OH; N-terminus and C-terminus assumed) | – | 8.7 nM | – | –
18 | CSCC[C@H](NC(=O)[C@H](CCCNC(=N)N)NC(=O)[C@@H](N)CCCNC(=N)N)C(=O)N1CCC[C@H]1C(=O)N1CCC[C@H]1C(=O)N[C@@H](CS)C(=O)N[C@@H](CC(C)C)C(=O)N[C@@H](C)C(=O)N[C@@H](CC(N)=O)C(=O)N[C@@H](Cc1ccccc1)C(=O)O (H-RRMPPCLANF-OH; N-terminus and C-terminus assumed) | – | 141 nM | – | –
19 | CC[C@H](C)[C@H](NC(=O)[C@H](CC(=O)O)NC(=O)[C@H](Cc1ccccc1)NC(=O)[C@H](CC(C)C)NC(=O)[C@@H](NC(=O)[C@H](CCC(=O)O)NC(=O)[C@@H](NC(=O)[C@H](CCSC)NC(=O)[C@@H](N)Cc1c[nH]c2ccccc12)[C@@H](C)O)[C@@H](C)O)C(=O)O (H-WMTETLFDI-OH; N-terminus and C-terminus assumed) | 14 nM | 713 nM | 4 h | –
